Measured values reported in patent publication US20260167632A1, “NICOTINAMIDE DERIVATIVES FOR USE IN TREATING DISORDERS ASSOCIATED WITH KCNK13 ACTIVITY” (Cerevance, Inc., priority 2022, published 2026).

The compounds below were run against T1, human KCNK13 (Homo sapiens, UniProt Q9HB14) (assay: KCNK13 antagonist activity, thallium flux FLIPR assay in HEK 293 cells stably expressing human KCNK13). Conditions: HEK 293 cells stably expressing human KCNK13, Tl+ sensitive dye, compound 15 min before thallium sulfate, ten point curves; read-out: hKCNK13 IC50.
T1 construct: expressed in transfected cells
T1 sequence (Q9HB14 1-408): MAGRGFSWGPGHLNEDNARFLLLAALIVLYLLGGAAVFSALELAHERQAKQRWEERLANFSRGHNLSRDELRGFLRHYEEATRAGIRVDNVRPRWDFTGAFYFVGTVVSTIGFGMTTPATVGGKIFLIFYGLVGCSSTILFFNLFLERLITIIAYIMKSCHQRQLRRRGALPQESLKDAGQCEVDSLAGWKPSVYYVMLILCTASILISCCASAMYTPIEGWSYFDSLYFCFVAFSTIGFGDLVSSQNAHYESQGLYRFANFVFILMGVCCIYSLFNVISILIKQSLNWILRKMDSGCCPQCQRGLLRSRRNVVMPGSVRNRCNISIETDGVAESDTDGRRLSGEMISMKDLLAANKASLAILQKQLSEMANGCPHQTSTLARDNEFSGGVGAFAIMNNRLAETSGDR
Type: cell-based
Procedure: 4. Biological Efficacy of Compounds of the Invention
KCNK13 antagonist activity was determined by measuring changes in intracellular Thallium (Tl^+) concentrations using a Tl^+ sensitive fluorescent dye. The changes in fluorescent signal were monitored by Fluorescent Imaging Plate Reader (FLIPR™) technology available from Molecular Devices, LLC, US. KCNK13 mediated increases in intracellular Tl^+ concentration were readily detected by addition of a thallium sulfate Stimulus. 24 hours prior to the assay, human embryonic kidney 293 cells (HEK 293 cells) stably expressing human KCNK13 were seeded in cell culture medium in PDL coated black, clear-bottom 384-well plates (commercially available from Corning Inc., 356663) and grown overnight at 37° C., […]. On the day of the assay, cell culture media was removed and cells were loaded with potassium dye (commercially sold by Molecular Devices, LLC, US, R8222) for 1 hour at room temperature in the dark. Test compounds (at 10 point half log concentration response curves from 100 µM) were added to cells for 15 minutes prior to the addition of thallium sulfate to all wells. The IC50 values were determined from ten point concentration response curves. Curves were generated using the average of two wells for each data point.

Compound | IC50 [nM]
COc1ncc(F)cc1C(=O)N(C)C1CCc2ccc(F)cc21 (single isomer, unassigned) [Example 9, 5-fluoro-N-(6-fluoro-2,3-dihydro-1H-inden-1-yl)-2-methoxy-N-methylnicotinamide] | ≤ 1000
COc1ncc(F)cc1C(=O)N(C)C1CCc2ccc(F)cc21 (single isomer, unassigned) [Example 10, 5-fluoro-N-(6-fluoro-2,3-dihydro-1H-inden-1-yl)-2-methoxy-N-methylnicotinamide] | ≤ 500
CCOc1ncc(Cl)cc1C(=O)N(C)C1CCc2ccccc21 (single isomer, unassigned) [Example 12, 5-chloro-N-(2,3-dihydro-1H-inden-1-yl)-2-ethoxy-N-methylnicotinamide] | ≤ 1000
CCOc1ncc(Cl)cc1C(=O)N(C)C1CCc2ccccc21 (single isomer, unassigned) [Example 13, 5-chloro-N-(2,3-dihydro-1H-inden-1-yl)-2-ethoxy-N-methylnicotinamide] | ≤ 500
COc1ncc(Cl)cc1C(=O)N(C)C1CCOc2ccccc21 (single isomer, unassigned) [Example 18, 5-chloro-N-(chroman-4-yl)-2-methoxy-N-methylnicotinamide] | ≤ 500
COc1ncc(Cl)cc1C(=O)N(C)C1CCOc2ccccc21 (single isomer, unassigned) [Example 19, 5-chloro-N-(chroman-4-yl)-2-methoxy-N-methylnicotinamide] | ≤ 500
COc1ncc(Cl)cc1C(=O)N(C)C1CCc2ccc(F)cc21 (single isomer, unassigned) [Example 20, 5-chloro-N-(6-fluoro-2,3-dihydro-1H-inden-1-yl)-2-methoxy-N-methylnicotinamide] | ≤ 500
COc1ncc(Cl)cc1C(=O)N(C)C1CCc2ccc(F)cc21 (single isomer, unassigned) [Example 21, 5-chloro-N-(6-fluoro-2,3-dihydro-1H-inden-1-yl)-2-methoxy-N-methylnicotinamide] | ≤ 200
COc1ncc(Cl)cc1C(=O)N(C)C1CCc2ccccc21 (single isomer, unassigned) [Example 22, 5-chloro-N-(2,3-dihydro-1H-inden-1-yl)-2-methoxy-N-methylnicotinamide] | ≤ 500
COc1ncc(Cl)cc1C(=O)N(C)C1CCc2ccccc21 (single isomer, unassigned) [Example 23, 5-chloro-N-(2,3-dihydro-1H-inden-1-yl)-2-methoxy-N-methylnicotinamide] | ≤ 500
COc1ncc(Cl)cc1C(=O)N(C)C1COc2ccccc21 (single isomer, unassigned) [Example 25, 5-chloro-N-(2,3-dihydrobenzofuran-3-yl)-2-methoxy-N-methylnicotinamide] | ≤ 500
COc1ncc(Cl)cc1C(=O)N(C)C1COc2ccccc21 (single isomer, unassigned) [Example 26, 5-chloro-N-(2,3-dihydrobenzofuran-3-yl)-2-methoxy-N-methylnicotinamide] | ≤ 500
COc1ncc(Cl)cc1C(=O)N(C)C1COc2ccccc21 (single isomer, unassigned) [Example 27, 5-chloro-N-(2,3-dihydrobenzofuran-3-yl)-2-methoxy-N-methylnicotinamide] | ≤ 500
COc1ncc(Cl)cc1C(=O)N(C)C1CCOc2c(F)cccc21 (single isomer, unassigned) [Example 28, 5-chloro-N-(8-fluorochroman-4-yl)-2-methoxy-N-methylnicotinamide] | ≤ 500
COc1ncc(Cl)cc1C(=O)N(C)C1CCOc2c(F)cccc21 (single isomer, unassigned) [Example 29, 5-chloro-N-(8-fluorochroman-4-yl)-2-methoxy-N-methylnicotinamide] | ≤ 500
COc1ncc(F)cc1C(=O)N(C)C1CCOc2c(F)cccc21 (single isomer, unassigned) [Example 30, 5-fluoro-N-(8-fluorochroman-4-yl)-2-methoxy-N-methylnicotinamide] | ≤ 500
COc1ncc(Cl)cc1C(=O)N(C)C1COc2cc(F)ccc21 (single isomer, unassigned) [Example 45, 5-chloro-N-(6-fluoro-2,3-dihydrobenzofuran-3-yl)-2-methoxy-N-methylnicotinamide] | ≤ 5000
COc1ncc(Cl)cc1C(=O)N(C)C1COc2cc(F)ccc21 (single isomer, unassigned) [Example 46, 5-chloro-N-(6-fluoro-2,3-dihydrobenzofuran-3-yl)-2-methoxy-N-methylnicotinamide] | ≤ 1000

Results, then the compound that gave them:

IC50 [nM] | Compound
≤ 500 | COc1ncc(F)cc1C(=O)N(C)C(C)c1ccccc1F (single isomer, unassigned) [Example 5, 5-fluoro-N-(1-(2-fluorophenyl)ethyl)-2-methoxy-N-methylnicotinamide]
≤ 500 | COc1ncc(F)cc1C(=O)N(C)C(C)c1ccccc1F (single isomer, unassigned) [Example 6, 5-fluoro-N-(1-(2-fluorophenyl)ethyl)-2-methoxy-N-methylnicotinamide]
≤ 200 | COc1ncc(F)cc1C(=O)N(C)C(C)c1cccc(F)c1 (single isomer, unassigned) [Example 7, 5-fluoro-N-(1-(3-fluorophenyl)ethyl)-2-methoxy-N-methylnicotinamide]
≤ 200 | COc1ncc(F)cc1C(=O)N(C)C(C)c1cccc(F)c1 (single isomer, unassigned) [Example 8, 5-fluoro-N-(1-(3-fluorophenyl)ethyl)-2-methoxy-N-methylnicotinamide]
≤ 500 | COc1ncc(F)cc1C(=O)N(C)C1CCOc2ccccc21 (single isomer, unassigned) [Example 14, N-(chroman-4-yl)-5-fluoro-2-methoxy-N-methylnicotinamide]
≤ 500 | COc1ncc(F)cc1C(=O)N(C)C1CCOc2ccccc21 (single isomer, unassigned) [Example 15, N-(chroman-4-yl)-5-fluoro-2-methoxy-N-methylnicotinamide]
≤ 500 | COc1ncc(F)cc1C(=O)N(C)C1CCc2ccccc21 (single isomer, unassigned) [Example 17, N-(2,3-dihydro-1H-inden-1-yl)-5-fluoro-2-methoxy-N-methylnicotinamide]
≤ 1000 | COc1ncc(F)cc1C(=O)N(C)C1CCOc2c(F)cccc21 (single isomer, unassigned) [Example 31, 5-fluoro-N-(8-fluorochroman-4-yl)-2-methoxy-N-methylnicotinamide]
≤ 500 | COc1ncc(Cl)cc1C(=O)N(C)C(C)c1cc(F)ccc1C#N (single isomer, unassigned) [Example 59, 5-chloro-N-(1-(2-cyano-5-fluorophenyl)ethyl)-2-methoxy-N-methylnicotinamide]
≤ 5000 | COc1ncc(Cl)cc1C(=O)N(C)C(C)c1cc(F)ccc1C#N (single isomer, unassigned) [Example 60, 5-chloro-N-(1-(2-cyano-5-fluorophenyl)ethyl)-2-methoxy-N-methylnicotinamide]
≤ 1000 | COc1ncc(F)cc1C(=O)N(C)C(C)c1cc(F)ccc1C#N (single isomer, unassigned) [Example 62, N-(1-(2-cyano-5-fluorophenyl)ethyl)-5-fluoro-2-methoxy-N-methylnicotinamide]
≤ 1000 | COc1ncc(F)cc1C(=O)N(C)C(C)c1cc(F)ccc1C#N (single isomer, unassigned) [Example 63, N-(1-(2-cyano-5-fluorophenyl)ethyl)-5-fluoro-2-methoxy-N-methylnicotinamide]
≤ 5000 | COc1ncc(F)cc1C(=O)N(C)C(C)c1ccc(F)cc1C#N (single isomer, unassigned) [Example 64, N-(1-(2-cyano-4-fluorophenyl)ethyl)-5-fluoro-2-methoxy-N-methylnicotinamide]
≤ 1000 | COc1ncc(F)cc1C(=O)N(C)C(C)c1ccc(F)cc1C#N (single isomer, unassigned) [Example 65, N-(1-(2-cyano-4-fluorophenyl)ethyl)-5-fluoro-2-methoxy-N-methylnicotinamide]
≤ 5000 | COc1ncc(Cl)cc1C(=O)N(C)C(C)c1ccc(F)cc1C#N (single isomer, unassigned) [Example 66, 5-chloro-N-(1-(2-cyano-4-fluorophenyl)ethyl)-2-methoxy-N-methylnicotinamide]
≤ 500 | COc1ncc(Cl)cc1C(=O)N(C)C(C)c1ccc(F)cc1C#N (single isomer, unassigned) [Example 67, 5-chloro-N-(1-(2-cyano-4-fluorophenyl)ethyl)-2-methoxy-N-methylnicotinamide]
≤ 5000 | COc1ncc(F)cc1C(=O)N(C)C(C)c1ccc(F)cc1F (single isomer, unassigned) [Example 68, N-(1-(2,4-difluorophenyl)ethyl)-5-fluoro-2-methoxy-N-methylnicotinamide]
